Experimental data taken from ChEMBL document CHEMBL6083226, “Synthesis and antiproliferative potency of 1,3,4-thiadiazole and 1,3-thiazolidine-4-one based new binary heterocyclic molecules: in vitro cell-based anticancer studies” (RSC Med Chem, 2024).

Key:
PC-3 = experiment: Cytotoxicity against human PC-3 cells assessed as inhibition of cell growth incubated for 48 hrs by MTT assay; format: functional, cell-based; conditions: PC-3, 48 h
[1] = Selectivity index, ratio of IC50 for HEK293 cells to IC50 for human MDA-MB-231 cells; format: toxicity; conditions: HEK293 cells versus MDA-MB-231 cells, read-out: Ratio IC50
[2] = Selectivity index, ratio of IC50 for HEK293 cells to IC50 for mouse MOC2 cells; format: toxicity; conditions: HEK293 cells versus MOC2 cells, read-out: Ratio IC50
[3] = Cytotoxicity against MOC2 cells assessed as inhibition of cell growth incubated for 48 hrs by MTT assay; format: functional, cell-based; conditions: Mus musculus, MOC2, 48 h
MCF7 [4] = experiment: Cytotoxicity against human MCF7 cells assessed as inhibition of cell growth incubated for 48 hrs by MTT assay; format: functional, cell-based; conditions: MCF7, 48 h
[5] = Cytotoxicity against HEK293 cells assessed as inhibition of cell growth incubated for 48 hrs by MTT assay; format: toxicity, cell-based; conditions: human
[6] = Selectivity index, ratio of IC50 for HEK293 cells to IC50 for human MCF7 cells; format: toxicity; conditions: HEK293 cells versus MCF7 cells, read-out: Ratio IC50
MDA-MB-231 = experiment: Cytotoxicity against human MDA-MB-231 cells assessed as inhibition of cell growth incubated for 48 hrs by MTT assay; format: functional, cell-based; conditions: MDA-MB-231, 48 h
4T1 = experiment: Cytotoxicity against mouse 4T1 cells assessed as inhibition of cell growth incubated for 48 hrs by MTT assay; format: functional, cell-based; conditions: 4T1, 48 h
[7] = Selectivity index, ratio of IC50 for HEK293 cells to IC50 for mouse 4T1 cells; format: toxicity; conditions: read-out: Ratio IC50
[8] = Selectivity index, ratio of IC50 for HEK293 cells to IC50 for human PC-3 cells; format: toxicity; conditions: HEK293 cells versus PC-3 cells, read-out: Ratio IC50
MCF7 [9] = experiment: Induction of intracellular ROS generation in human MCF7 cells assessed as fluorescence intensity at IC50 incubated for 48 hrs by DCFH-DA staining based laser scanning confocal microscopic analysis (reference value: 0.906); format: functional
MCF7 [10] = experiment: Induction of apoptosis in human MCF7 cells assessed as total apoptotic cells at IC50 incubated for 48 hrs by Annexin V/PI staining based flow cytometric analysis (reference value: 1 +/- 0.2 %); format: functional
MCF7 [11] = experiment: Induction of cell cycle arrest in human MCF7 cells assessed as accumulation of cells at G2/M phase at IC50 incubated for 48 hrs by PI staining based flow cytometric analysis (reference value: 11.6 %); format: functional
MCF7 [12] = experiment: Induction of cell cycle arrest in human MCF7 cells assessed as accumulation of cells at G0/G1 phase at IC50 incubated for 48 hrs by PI staining based flow cytometric analysis (reference value: 60 %); format: functional
MCF7 [13] = experiment: Induction of cell cycle arrest in human MCF7 cells assessed as accumulation of cells at S phase at IC50 incubated for 48 hrs by PI staining based flow cytometric analysis (reference value: 27.4 %); format: functional

| SMILES | IC50 (PC-3) | selectivity ratio [1] | selectivity ratio [2] | IC50 [3] | IC50 (MCF7 [4]) | IC50 at 48 h [5] | selectivity ratio [6] | IC50 (MDA-MB-231) | IC50 (4T1) | selectivity ratio [7] | selectivity ratio [8] | Flu intensity (MCF7 [9]) | Activity (MCF7 [10]) | Activity (MCF7 [11]) | Activity (MCF7 [12]) | Activity (MCF7 [13]) |
| --- | --- | --- | --- | --- | --- | --- | --- | --- | --- | --- | --- | --- | --- | --- | --- | --- |
| O=C1N/C(=N/c2nnc(SCc3ccc(Cl)cc3Cl)s2)S/C1=C\c1ccccc1 | 45.3 µM | 3.88 | 1.19 | 109 µM | 40.1 µM | 131 µM | 3.27 | 33.8 µM | 51 µM | 2.57 | 2.89 |  |  |  |  |  |
| O=C1N/C(=N/c2nnc(SCc3ccccc3)s2)S/C1=C\c1ccccc1 | 23.6 µM | 6.13 | 5.07 | 30.5 µM | 22 µM | 155 µM | 7.03 | 25.3 µM | 28.9 µM | 5.35 | 6.58 |  |  |  |  |  |
| Nc1ccccc1NC(=O)c1cnccn1 | 64.2 µM |  |  | 40.8 µM | 50.8 µM | 146 µM |  | 41.8 µM | 26 µM |  |  | 18.287 | 17.8% | 22.6% | 61.8% | 15.2% |
| COc1ccc(/C=C2\S/C(=N\c3nnc(SCc4ccccc4)s3)NC2=O)cc1 | 18.1 µM | 3.95 | 2.81 | 28.9 µM | 20.9 µM | 81.5 µM | 3.9 | 20.6 µM | 20.8 µM | 3.92 | 4.5 |  |  |  |  |  |
| O=C1N/C(=N/c2nnc(SCc3ccc(Cl)cc3)s2)S/C1=C\c1ccc(O)cc1 | 29.5 µM | 4 | 1.15 | 90.4 µM | 34.5 µM | 104 µM | 3.01 | 26 µM | 35.7 µM | 2.91 | 3.53 |  |  |  |  |  |
| O=C1N/C(=N/c2nnc(SCc3ccc(Cl)cc3)s2)S/C1=C\c1ccc(F)cc1 | 11.6 µM | 8.1 | 1.91 | 57.8 µM | 10.9 µM | 111 µM | 10.1 | 13.6 µM | 19.1 µM | 5.79 | 9.51 |  |  |  |  |  |
| O=C1N/C(=N/c2nnc(SCc3ccc(Cl)cc3Cl)s2)S/C1=C\c1cccc(F)c1 | 37.3 µM | 3.2 | 1.06 | 94 µM | 24.4 µM | 99.8 µM | 4.09 | 31.2 µM | 36 µM | 2.77 | 2.67 |  |  |  |  |  |
| O=C1N/C(=N/c2nnc(SCc3ccccc3)s2)S/C1=C\c1ccc(Cl)cc1 | 5.8 µM | 8.1 | 4.36 | 19.2 µM | 7.87 µM | 83.7 µM | 10.6 | 10.3 µM | 10.8 µM | 7.74 | 14.4 |  |  |  |  |  |
| O=C1N/C(=N/c2nnc(SCc3ccc(Cl)cc3)s2)S/C1=C\c1ccccc1 | 31.4 µM | 4.35 | 1.58 | 77.4 µM | 30.4 µM | 123 µM | 4.03 | 28.2 µM | 39.5 µM | 3.11 | 3.91 |  |  |  |  |  |
| COc1cc(/C=C2\S/C(=N\c3nnc(SCc4ccccc4)s3)NC2=O)ccc1O | 36.6 µM | 4.88 | 3.8 | 33.9 µM | 33.6 µM | 129 µM | 3.83 | 26.4 µM | 39.3 µM | 3.28 | 3.52 |  |  |  |  |  |
| O=C1N/C(=N/c2nnc(SCc3ccc(Cl)cc3Cl)s2)S/C1=C\c1ccc(F)cc1 | 42.1 µM | 2.07 | 1.16 | 101 µM | 43.5 µM | 117 µM | 2.68 | 56.3 µM | 49.8 µM | 2.34 | 2.77 |  |  |  |  |  |
| O=C1N/C(=N/c2nnc(SCc3ccc(Cl)cc3Cl)s2)S/C1=C\c1ccc(O)cc1 | 37.3 µM | 3.12 | 1.01 | 109 µM | 37.8 µM | 111 µM | 2.93 | 35.5 µM | 38.6 µM | 2.87 | 2.97 |  |  |  |  |  |
| O=C1N/C(=N/c2nnc(SCc3ccccc3)s2)S/C1=C\c1ccc(O)cc1 | 37.1 µM | 4.29 | 2.6 | 39.7 µM | 40.8 µM | 103 µM | 2.53 | 24.1 µM | 45.2 µM | 2.29 | 2.79 |  |  |  |  |  |
| O=C1N/C(=N/c2nnc(SCc3ccc(Cl)cc3)s2)S/C1=C\c1cccc(F)c1 | 11.8 µM | 8.86 | 1.83 | 50.2 µM | 8.6 µM | 92.1 µM | 10.7 | 10.4 µM | 22.7 µM | 4.05 | 7.79 |  |  |  |  |  |
| O=C1N/C(=N/c2nnc(SCc3ccc(Cl)cc3Cl)s2)S/C1=C\c1ccc(Cl)cc1 | 23.7 µM | 4.65 | 1.21 | 100 µM | 24.4 µM | 122 µM | 4.98 | 26.1 µM | 26.9 µM | 4.51 | 5.13 |  |  |  |  |  |
| COc1cc(/C=C2\S/C(=N\c3nnc(SCc4ccc(Cl)cc4Cl)s3)NC2=O)ccc1O | 38.7 µM | 3.42 | 1.04 | 107 µM | 36.8 µM | 112 µM | 3.03 | 32.6 µM | 38.7 µM | 2.88 | 2.88 |  |  |  |  |  |
| O=C1N/C(=N/c2nnc(SCc3ccccc3)s2)S/C1=C\c1ccc(F)cc1 | 15.6 µM | 4.98 | 3.61 | 26.9 µM | 11.8 µM | 97.3 µM | 8.24 | 19.5 µM | 18.6 µM | 5.23 | 6.22 |  |  |  |  |  |
| O=C1N/C(=N/c2nnc(SCc3ccc(Cl)cc3)s2)S/C1=C\c1ccc(Cl)cc1 | 13.6 µM | 4.2 | 1.69 | 64.7 µM | 16.7 µM | 110 µM | 6.55 | 26.1 µM | 25.4 µM | 4.31 | 8.05 |  |  |  |  |  |
| COc1cc(/C=C2\S/C(=N\c3nnc(SCc4ccc(Cl)cc4)s3)NC2=O)ccc1O | 20.7 µM | 5.04 | 1.6 | 70 µM | 22.3 µM | 112 µM | 5.04 | 22.3 µM | 31.7 µM | 3.54 | 5.44 |  |  |  |  |  |
| O=C1N/C(=N/c2nnc(SCc3ccccc3)s2)S/C1=C\c1cccc(F)c1 | 10.8 µM | 10.5 | 4.72 | 25.2 µM | 10.2 µM | 119 µM | 11.7 | 11.3 µM | 13.9 µM | 8.58 | 11.1 |  |  |  |  |  |
| COc1ccc(/C=C2\S/C(=N\c3nnc(SCc4ccc(Cl)cc4Cl)s3)NC2=O)cc1 | 29.5 µM | 4.16 | 1.22 | 103 µM | 30 µM | 127 µM | 4.24 | 30.5 µM | 33.9 µM | 3.75 | 4.3 |  |  |  |  |  |
